This note sets out measurements from patent US9809574B2, “Isoindoline or isoquinoline compounds, a process for their preparation and pharmaceutical compositions containing them” (LES LABORATOIRES SERVIER, priority 2013, dated 2017).

Counter-ions that a name gives are not always drawn.

Assay [1] concerns RS4; 11 leukaemia cell line. Description: In vitro cytotoxicity, Microculture Tetrazolium Assay (MTT). To be noted: Homo sapiens, 11 cells exposed for 48 hours. It counts as cell-based. The method, then:
The cytotoxicity studies were carried out on the RS4; 11 leukaemia cell line and on H146 small Cell Lung Carcinoma cell line. The cells are distributed onto microplates and exposed to the test compounds for 48 hours. The cell viability is then quantified by a colorimetric assay, the Microculture Tetrazolium Assay (Cancer Res., 1987, 47, 939-942).

The target in assay [2] is Bcl-2 protein (histag-Bcl-2, UniProtKB P10415) (Homo sapiens (Human), UniProt P10415). Description: Inhibition of Bcl-2 by the fluorescence polarisation technique. It is filed as binding. As to conditions: fluorescence polarisation test; incubation for 2 hours; read-out: IC50 (nM) Bcl-2 FP. An excerpt:
For partial inhibitors, the percentage fluorescence polarisation inhibition for a given concentration of the test compound is indicated.

Chain of Bcl-2 protein (P10415 whole entry): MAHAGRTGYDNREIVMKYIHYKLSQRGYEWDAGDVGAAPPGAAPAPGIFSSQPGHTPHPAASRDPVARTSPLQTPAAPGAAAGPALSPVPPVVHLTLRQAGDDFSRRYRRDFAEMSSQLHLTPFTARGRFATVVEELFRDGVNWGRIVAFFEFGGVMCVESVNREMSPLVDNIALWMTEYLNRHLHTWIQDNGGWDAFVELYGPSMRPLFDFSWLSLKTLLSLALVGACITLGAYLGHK

As usually defined, the IC50 is the point on the concentration scale where inhibition reaches its midpoint. Consider `CN(C(=O)c1cc(-c2cc3c(cc2C(=O)N2Cc4ccccc4C[C@H]2CN2CCOCC2)CN(C(=O)Oc2ccccc2)C3)n2c1CCCC2)c1ccc(O)cc1` [Example 16, Phenyl 5-{1-[(4-hydroxyphenyl)(methyl)carbamoyl]-5,6,7,8-tetrahydroindolizin-3-yl}-6-[(3S)-3-(morpholin-4-ylmethyl)-1,2,3,4-tetrahydroisoquinoline-2-carbonyl]-2,3-dihydro-1H-isoindole-2-carboxylate hydrochloride], for which the 50% inhibitory concentration (IC50) in assay [1] is 27 nM; in assay [2], 6 nM.

Regarding `CN(C(=O)c1cc(-c2cc3c(cc2C(=O)N2Cc4ccccc4C[C@H]2CN2CCOCC2)CN(C(=O)NC(C)(C)C)C3)n2c1CCCC2)c1ccc(O)cc1` [Example 17, N-tert-Butyl-5-{1-[(4-hydroxyphenyl)(methyl)carbamoyl]-5,6,7,8-tetrahydroindolizin-3-yl}-6-[(3S)-3-(morpholin-4-ylmethyl)-1,2,3,4-tetrahydroisoquinoline-2-carbonyl]-2,3-dihydro-1H-isoindole-2-carboxamide hydrochloride], the IC50 in assay [1] was 1760 nM; in assay [2], 91 nM.

Take `CCS(=O)(=O)N1Cc2cc(C(=O)N3Cc4ccccc4C[C@H]3CN3CCOCC3)c(-c3cc(C(=O)N(C)c4ccc(O)cc4)c4n3CCCC4)cc2C1` [Example 18, 3-[2-(Ethanesulfonyl)-6-[(3S)-3-(morpholin-4-ylmethyl)-1,2,3,4-tetrahydroisoquinoline-2-carbonyl]-2,3-dihydro-1H-isoindol-5-yl]-N-(4-hydroxyphenyl)-N-methyl-5,6,7,8-tetrahydroindolizine-1-carboxamide hydrochloride]: the IC50 came out at 1290 nM in assay [1] and 38 nM in assay [2].

Regarding `CN(C(=O)c1cc(-c2cc3c(cc2C(=O)N2Cc4ccccc4C[C@H]2CN2CCOCC2)CN(S(=O)(=O)c2ccccc2)C3)n2c1CCCC2)c1ccc(O)cc1` [Example 19, 3-[2-(Benzenesulfonyl)-6-[(3S)-3-(morpholin-4-ylmethyl)-1,2,3,4-tetrahydroisoquinoline-2-carbonyl]-2,3-dihydro-1H-isoindol-5-yl]-N-(4-hydroxyphenyl)-N-methyl-5,6,7,8-tetrahydroindolizine-1-carboxamide hydrochloride], the concentration for half-maximal inhibition (IC50) in assay [1] turned out to be 774 nM; in assay [2], 47 nM.

As to `C[C@@H]1Cc2ccccc2CN1C(=O)c1cc2c(cc1-c1cc(C(=O)N(C)c3ccc(O)cc3)c3n1CCCC3)CN(C(=O)C1CC1)C2` [Example 20, 3-{2-Cyclopropanecarbonyl-6-[(3R)-3-methyl-1,2,3,4-tetrahydroisoquinoline-2-carbonyl]-2,3-dihydro-1H-isoindol-5-yl}-N-(4-hydroxyphenyl)-N-methyl-5,6,7,8-tetrahydroindolizine-1-carboxamide], the IC50 in assay [1] is above 150 nM; in assay [2], 20 nM.

As for `CN(C(=O)c1cc(-c2cc3c(cc2C(=O)N2Cc4ccccc4C[C@H]2CN2CCOCC2)CN(S(=O)(=O)CCc2ccccc2)C3)n2c1CCCC2)c1ccc(O)cc1` [Example 21, N-(4-Hydroxyphenyl)-N-methyl-3-{6-[(3S)-3-(morpholin-4-ylmethyl)-1,2,3,4-tetrahydroisoquinoline-2-carbonyl]-2-(2-phenylethanesulfonyl)-2,3-dihydro-1H-isoindol-5-yl}-5,6,7,8-tetrahydroindolizine-1-carboxamide hydrochloride], the IC50 in assay [1] amounted to 112 nM; in assay [2], 14 nM.

In the case of `CN(C(=O)c1cc(-c2cc3c(cc2C(=O)N2Cc4ccccc4C[C@H]2CN2CCOCC2)CN(S(=O)(=O)c2cccnc2)C3)n2c1CCCC2)c1ccc(O)cc1` [Example 22, N-(4-Hydroxyphenyl)-N-methyl-3-{6-[(3S)-3-(morpholin-4-ylmethyl)-1,2,3,4-tetrahydroisoquinoline-2-carbonyl]-2-(pyridine-3-sulfonyl)-2,3-dihydro-1H-isoindol-5-yl}-5,6,7,8-tetrahydroindolizine-1-carboxamide hydrochloride], the IC50 was above 150 nM in assay [1] and 70 nM in assay [2].

As for `CC(Cc1ccccc1)C(=O)N1Cc2cc(C(=O)N3Cc4ccccc4C[C@H]3C)c(-c3cc(C(=O)N(C)c4ccc(O)cc4)c4n3CCCC4)cc2C1` (stereo partly drawn) [Example 23, 3-[2-(2-Benzylpropanoyl)-6-[(3R)-3-methyl-1,2,3,4-tetrahydroisoquinoline-2-carbonyl]-2,3-dihydro-1H-isoindol-5-yl]-N-(4-hydroxyphenyl)-N-methyl-5,6,7,8-tetrahydroindolizine-1-carboxamide], the IC50 was determined as 61 nM in assay [1] and 13 nM in assay [2].

As to `CC(Cc1ccc(Cl)cc1)C(=O)N1Cc2cc(C(=O)N3Cc4ccccc4C[C@H]3C)c(-c3cc(C(=O)N(C)c4ccc(O)cc4)c4n3CCCC4)cc2C1` (stereo partly drawn) [Example 24, 3-(2-{2-[(4-Chlorophenyl)methyl]propanoyl}-6-[(3R)-3-methyl-1,2,3,4-tetrahydroisoquinoline-2-carbonyl]-2,3-dihydro-1H-isoindol-5-yl)-N-(4-hydroxyphenyl)-N-methyl-5,6,7,8-tetrahydroindolizine-1-carboxamide], the results for the IC50 in assay [1] and in assay [2] were above 150 nM and 19 nM, respectively.

Consider `Cc1ccc(CC(C)C(=O)N2Cc3cc(C(=O)N4Cc5ccccc5C[C@H]4C)c(-c4cc(C(=O)N(C)c5ccc(O)cc5)c5n4CCCC5)cc3C2)cc1` (stereo partly drawn) [Example 25, N-(4-Hydroxyphenyl)-N-methyl-3-{6-[(3R)-3-methyl-1,2,3,4-tetrahydroisoquinoline-2-carbonyl]-2-{2-[(4-methylphenyl)methyl]propanoyl}-2,3-dihydro-1H-isoindol-5-yl}-5,6,7,8-tetrahydroindolizine-1-carboxamide], for which the values for the concentration for half-maximal inhibition (IC50) in assay [1] and in assay [2] were 144 nM and 29 nM, respectively.

For `C[C@@H]1Cc2ccccc2CN1C(=O)c1cc2c(cc1-c1cc(C(=O)N(C)c3ccc(O)cc3)c3n1CCCC3)CN(C(=O)Cc1ccc(OC(F)(F)F)cc1)C2` [Example 26, N-(4-Hydroxyphenyl)-N-methyl-3-{6-[(3R)-3-methyl-1,2,3,4-tetrahydroisoquinoline-2-carbonyl]-2-{2-[4-(trifluoromethoxy)phenyl]acetyl}-2,3-dihydro-1H-isoindol-5-yl}-5,6,7,8-tetrahydroindolizine-1-carboxamide], the half-maximal inhibitory concentration (IC50) was found to be 86 nM in assay [1] and 30 nM in assay [2].

For the compound `C[C@@H]1Cc2ccccc2CN1C(=O)c1cc2c(cc1-c1cc(C(=O)N(C)c3ccc(O)cc3)c3n1CCCC3)CN(Cc1ccccn1)C2` [Example 28, N-(4-Hydroxyphenyl)-N-methyl-3-{6-[(3R)-3-methyl-1,2,3,4-tetrahydroisoquinoline-2-carbonyl]-2-(pyridin-2-ylmethyl)-2,3-dihydro-1H-isoindol-5-yl}-5,6,7,8-tetrahydroindolizine-1-carboxamide], the concentration for half-maximal inhibition (IC50) in assay [1] is above 150 nM; in assay [2], 23 nM.

With `C[C@@H]1Cc2ccccc2CN1C(=O)c1cc2c(cc1-c1cc(C(=O)N(C)c3ccc(O)cc3)c3n1CCCC3)CN(CCC1CCCCC1)C2` [Example 29, 3-[2-(2-Cyclohexylethyl)-6-[(3R)-3-methyl-1,2,3,4-tetrahydroisoquinoline-2-carbonyl]-2,3-dihydro-1H-isoindol-5-yl]-N-(4-hydroxyphenyl)-N-methyl-5,6,7,8-tetrahydroindolizine-1-carboxamide], the half-maximal inhibitory concentration (IC50) is above 150 nM in assay [1] and 28 nM in assay [2].

For the compound `C[C@@H]1Cc2ccccc2CN1C(=O)c1cc2c(cc1-c1cc(C(=O)N(C)c3ccc(O)cc3)c3n1CCCC3)CN(CCCc1ccccc1)C2` [Example 30, N-(4-Hydroxyphenyl)-N-methyl-3-{6-[(3R)-3-methyl-1,2,3,4-tetrahydroisoquinoline-2-carbonyl]-2-(3-phenylpropyl)-2,3-dihydro-1H-isoindol-5-yl}-5,6,7,8-tetrahydroindolizine-1-carboxamide], the half-maximal inhibitory concentration (IC50) in assay [1] was determined as 119 nM; in assay [2], 16 nM.

For `C[C@@H]1Cc2ccccc2CN1C(=O)c1cc2c(cc1-c1cc(C(=O)N(C)c3ccc(O)cc3)c3n1CCCC3)CN(C(=O)Cc1csc(-c3cnccn3)n1)C2` [Example 31, N-(4-Hydroxyphenyl)-N-methyl-3-{6-[(3R)-3-methyl-1,2,3,4-tetrahydroisoquinoline-2-carbonyl]-2-{2-[2-(pyrazin-2-yl)-1,3-thiazol-4-yl]acetyl}-2,3-dihydro-1H-isoindol-5-yl}-5,6,7,8-tetrahydroindolizine-1-carboxamide], the results for the IC50 in assay [1] and in assay [2] were 113 nM and 7.4 nM, respectively.

Take `C[C@@H]1Cc2ccccc2CN1C(=O)c1cc2c(cc1-c1cc(C(=O)N(C)c3ccc(O)cc3)c3n1CCCC3)CN(C(=O)CCC1CCCCC1)C2` [Example 32, 3-[2-(3-Cyclohexylpropanoyl)-6-[(3R)-3-methyl-1,2,3,4-tetrahydroisoquinoline-2-carbonyl]-2,3-dihydro-1H-isoindol-5-yl]-N-(4-hydroxyphenyl)-N-methyl-5,6,7,8-tetrahydroindolizine-1-carboxamide]: the results for the concentration for half-maximal inhibition (IC50) in assay [1] and in assay [2] were 141 nM and 47 nM, respectively.

In the case of `C[C@@H]1Cc2ccccc2CN1C(=O)c1cc2c(cc1-c1cc(C(=O)N(C)c3ccc(O)cc3)c3n1CCCC3)CN(Cc1ccccc1)C2` [Example 33, 3-{2-Benzyl-6-[(3R)-3-methyl-1,2,3,4-tetrahydroisoquinoline-2-carbonyl]-2,3-dihydro-1H-isoindol-5-yl}-N-(4-hydroxyphenyl)-N-methyl-5,6,7,8-tetrahydroindolizine-1-carboxamide], the concentration for half-maximal inhibition (IC50) in assay [1] is 460 nM; in assay [2], 33 nM.

Regarding `CCC(=O)N1CCc2cc(-c3cc(C(=O)N(C)c4ccc(O)cc4)c4n3CCCC4)c(C(=O)N3Cc4ccccc4C[C@H]3C)cc2C1` [Example 34, N-(4-Hydroxyphenyl)-N-methyl-3-{7-[(3R)-3-methyl-1,2,3,4-tetrahydroisoquinoline-2-carbonyl]-2-propanoyl-1,2,3,4-tetrahydroisoquinolin-6-yl}-5,6,7,8-tetrahydroindolizine-1-carboxamide], the half-maximal inhibitory concentration (IC50) in assay [1] amounted to 19 nM; in assay [2] it was 4.9 nM.
